Measured values published in ChEMBL document CHEMBL1132080, “Investigation of the S3 site of thrombin: design, synthesis and biological activity of 4-substituted 3-amino-2-pyridones incorporating P1-argininals” (Bioorg Med Chem Lett, 1999).

Legend:
[1] = biological target: Prothrombin (Homo sapiens, UniProt P00734); assay: Concentration required for the in vitro inhibitory activity against human enzyme, thrombin cleavage of the chromogenic substrate
[2] = biological target: Serine protease 1 (Homo sapiens, UniProt P07477); assay: Concentration required for the in vitro inhibitory activity against human enzyme, trypsin cleavage of the chromogenic substrate
Sequence of Serine protease 1 (P07477 whole entry): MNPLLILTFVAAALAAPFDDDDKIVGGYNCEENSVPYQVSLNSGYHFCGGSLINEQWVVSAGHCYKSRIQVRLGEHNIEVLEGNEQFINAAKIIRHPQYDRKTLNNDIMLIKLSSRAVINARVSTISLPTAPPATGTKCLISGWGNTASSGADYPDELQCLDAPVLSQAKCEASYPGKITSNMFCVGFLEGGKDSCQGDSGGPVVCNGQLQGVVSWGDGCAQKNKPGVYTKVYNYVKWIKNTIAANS

[3] = biological target: Coagulation factor X (Homo sapiens, UniProt P00742); assay: Concentration required for the in vitro inhibitory activity against human enzyme, Factor Xa cleavage of the chromogenic substrate
Sequence of Coagulation factor X (P00742 41-179 limits assumed): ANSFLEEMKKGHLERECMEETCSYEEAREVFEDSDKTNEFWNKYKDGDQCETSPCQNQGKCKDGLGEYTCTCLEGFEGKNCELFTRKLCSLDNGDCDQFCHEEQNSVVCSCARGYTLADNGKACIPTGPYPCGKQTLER
Sequence of Coagulation factor X (P00742 235-488 limits assumed): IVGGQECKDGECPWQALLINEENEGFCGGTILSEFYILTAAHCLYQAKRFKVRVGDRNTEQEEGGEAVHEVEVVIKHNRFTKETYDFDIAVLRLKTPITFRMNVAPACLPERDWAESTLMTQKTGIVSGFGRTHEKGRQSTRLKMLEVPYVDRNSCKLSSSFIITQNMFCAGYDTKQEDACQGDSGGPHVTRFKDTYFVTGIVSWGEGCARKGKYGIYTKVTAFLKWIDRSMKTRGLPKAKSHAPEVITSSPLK

[4] = biological target: Plasminogen (Homo sapiens, UniProt P00747); assay: Concentration required for the in vitro inhibitory activity against human enzyme, Plasmin cleavage of the chromogenic substrate
Sequence of Plasminogen (P00747 97-580 limits assumed): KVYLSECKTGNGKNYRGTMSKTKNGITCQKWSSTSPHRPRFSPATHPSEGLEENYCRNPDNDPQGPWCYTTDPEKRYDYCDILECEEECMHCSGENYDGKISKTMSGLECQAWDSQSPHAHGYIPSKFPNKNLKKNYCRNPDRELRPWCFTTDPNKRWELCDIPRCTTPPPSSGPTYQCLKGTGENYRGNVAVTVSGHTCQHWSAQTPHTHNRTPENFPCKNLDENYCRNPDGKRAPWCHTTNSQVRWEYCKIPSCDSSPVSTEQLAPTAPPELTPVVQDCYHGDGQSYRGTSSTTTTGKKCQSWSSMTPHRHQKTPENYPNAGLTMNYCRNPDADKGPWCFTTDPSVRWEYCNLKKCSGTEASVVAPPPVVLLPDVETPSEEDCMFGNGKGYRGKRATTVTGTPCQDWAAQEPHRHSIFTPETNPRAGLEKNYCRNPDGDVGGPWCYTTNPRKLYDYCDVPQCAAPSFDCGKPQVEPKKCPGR
Sequence of Plasminogen (P00747 581-810 limits assumed): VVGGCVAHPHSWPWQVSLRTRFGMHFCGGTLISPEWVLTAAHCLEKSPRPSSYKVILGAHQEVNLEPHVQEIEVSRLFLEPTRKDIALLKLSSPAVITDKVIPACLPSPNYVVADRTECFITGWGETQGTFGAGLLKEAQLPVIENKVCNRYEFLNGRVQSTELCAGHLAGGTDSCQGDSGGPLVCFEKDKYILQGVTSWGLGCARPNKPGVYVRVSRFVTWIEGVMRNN

In the case of CS(=O)(=O)Nc1c(CCC2CCCCC2)ccn(CC(=O)N[C@H]2CCCN(C(=N)N)C2O)c1=O (some centres not stated), the IC50 [1] is reported as 256 nM, the IC50 [2] is reported as 257 nM and the IC50 [3] is reported as 2500 nM. For the same compound, the IC50 [4] was > 2500 nM.

N=C(N)N1CCC[C@H](NC(=O)Cn2ccc(CCc3ccccc3)c(NS(=O)(=O)CC(F)(F)F)c2=O)C1O (some centres not stated) was tested, and the IC50 [1] was 194 nM, the IC50 [2] was 1220 nM and the IC50 [3] was > 2500 nM. The IC50 [4] was > 2500 nM.

With CS(=O)(=O)Nc1c(CCCc2ccccc2)ccn(CC(=O)N[C@H]2CCCN(C(=N)N)C2O)c1=O (some centres not stated) the IC50 [1] was 203 nM, the IC50 [2] was 479 nM and the IC50 [3] was > 2500 nM. The IC50 [4] was > 2500 nM.

In the case of CC(=O)Nc1c(CCc2ccccc2)ccn(CC(=O)N[C@H]2CCCN(C(=N)N)C2O)c1=O (some centres not stated), the IC50 [1] is reported as 472 nM, the IC50 [2] is reported as 1220 nM and the IC50 [3] is reported as > 2500 nM. The IC50 [4] was > 2500 nM.

CNS(=O)(=O)Nc1c(CCc2ccccc2)ccn(CC(=O)N[C@H]2CCCN(C(=N)N)C2O)c1=O (some centres not stated) gave an IC50 [1] of 50.5 nM, an IC50 [2] of 103 nM and an IC50 [3] of 2500 nM. For the same compound, the IC50 [4] was 250 nM.

For CS(=O)(=O)Nc1c(CCc2ccccc2)ccn(CC(=O)N[C@H]2CCCN(C(=N)N)C2O)c1=O (some centres not stated), the IC50 [1] was 7.95 nM, the IC50 [2] was 135 nM and the IC50 [3] was > 2500 nM. The IC50 [4] was > 2500 nM.

With N=C(N)N1CCC[C@H](NC(=O)CN2CCCC(NS(=O)(=O)Cc3ccccc3)C2=O)C1O (some centres not stated) the IC50 [1] was 6.2 nM, the IC50 [2] was 791 nM and the IC50 [3] was 2500 nM. The IC50 [4] was > 2500 nM.

N=C(N)N1CCC[C@H](NC(=O)Cn2ccc(CCc3ccccc3)c(NS(=O)(=O)c3ccccc3)c2=O)C1O (some centres not stated) showed an IC50 [1] of 89.1 nM, an IC50 [2] of 188 nM and an IC50 [3] of 2360 nM. For the same compound, the IC50 [4] was > 2500 nM.
